{"source": "patent US20230139056A1", "about": "“METHODS, COMPOSITIONS AND REAGENTS FOR PREPARING COMPOUNDS” (Regents of the University of Minnesota, priority 2021, published 2023)", "target": "T1, SyrB2 halogenase (Pseudomonas syringae pv. syringae, UniProt Q9RBY6)", "T1 construct": "His-tag (inferred from the pET-28a(+) vector and Ni HisTrap purification); made in house; host or cells: E. coli BL21-Gold (DE3)", "T1 sequence (Q9RBY6 whole entry)": "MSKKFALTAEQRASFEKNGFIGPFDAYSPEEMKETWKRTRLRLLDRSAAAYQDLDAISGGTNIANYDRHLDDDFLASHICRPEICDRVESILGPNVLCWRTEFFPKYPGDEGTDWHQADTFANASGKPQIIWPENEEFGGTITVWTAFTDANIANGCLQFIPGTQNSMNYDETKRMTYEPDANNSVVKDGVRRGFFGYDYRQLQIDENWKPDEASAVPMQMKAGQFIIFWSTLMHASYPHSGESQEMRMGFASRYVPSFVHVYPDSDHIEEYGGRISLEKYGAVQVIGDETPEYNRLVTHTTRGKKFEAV", "assay": "Fluorination assay of Thr by SyrB2 halogenase with ligator (LC-MS/MS)", "format": "biochemical", "protocol": "In an anaerobic glovebag (98% N2/2% H2, Coy Laboratories), all plasticware, solutions, and solids were allowed to equilibrate overnight before use. Stock solutions of RXN buffer (20 mM HEPES, pH=7.5), 20G (100 mM in RXN buffer, pH=7.5), NOG (150 mM in RXN buffer, pH=7.5), and Milli-Q water were degassed using a vacuum manifold on a Schlenk Line apparatus. At least three cycles of vacuum and subsequent equilibration with Argon gas were performed before transfer to the glovebag. Halide Salts (NaCl, NaF) and ferrous ammonium sulfate (FAS) were transferred to the glovebag the day before use.\nStock SyrB1-PPT-Thr and SyrB2 were thawed on ice-water and centrifuged to remove any possible precipitate. Stock proteins were diluted in RXN buffer and transferred to individual ReactiVials (Thermo) sealed with septa on a pre-cooled ReactiBlock (Thermo). Protein was deoxygenated by piercing the ReactiVials with needles and purging the headspace with a continuous flow of Argon gas for 1 hr while continuously stirring the protein solution on ice bath. Reactivials were sealed and transferred to the glovebag. While deoxygenating the protein, halide salts were dissolved in RXN buffer in the glovebag. To individual 1.7 mL tubes, RXN buffer, ligand (NOG or 2OG), and halide (NaCl or NaF) were added and cooled to 4° C. The ReactiVials containing the proteins were sealed and transferred to the glovebag. […]", "data": [{"compound": "O=C(O)CNC(=O)C(=O)O", "note": "[NOG, N-oxalylglycine]", "values": [{"measurement": "side products (hydroxylated substrates) observed", "setting": "in some of the reaction conditions with ligator", "value": "little to no side products"}, {"measurement": "fluorination of Thr amino acid by SyrB2 halogenase", "setting": "ligator 1 mM, NaF 10 mM, LC-MS/MS (FIG. 3)", "value": "enabling fluorination of Thr amino acid"}]}]}
